From publication PMC11597817, “Modulation of Multispecific Transporters by Uncaria tomentosa Extract and Its Major Phytoconstituents” (Pharmaceutics, 2024)
Read-outs that look alike come from different tables or passages of the source.

How the values were obtained:
[1] = molecular target: T1, BCRP (Homo sapiens, UniProt Q9UNQ0); assay: Vesicular transport inhibition assay, BCRP membrane vesicles; type: biochemical; settings: for Igut/IC50 ratio: BCRP, Igut = dose/250 mL, 500 mg dose of UT extract, ICH M12 cut-off 10; for IC50: oxindole alkaloids, substrate E3S, read-out: IC50 (95% CI of IC50)
T1 construct: The cDNA encoding respective transporters were synthetized and cloned by GenScript; host or cells: HEK293 (lentiviral transduction), membrane vesicles
T1 sequence (Q9UNQ0 1-655): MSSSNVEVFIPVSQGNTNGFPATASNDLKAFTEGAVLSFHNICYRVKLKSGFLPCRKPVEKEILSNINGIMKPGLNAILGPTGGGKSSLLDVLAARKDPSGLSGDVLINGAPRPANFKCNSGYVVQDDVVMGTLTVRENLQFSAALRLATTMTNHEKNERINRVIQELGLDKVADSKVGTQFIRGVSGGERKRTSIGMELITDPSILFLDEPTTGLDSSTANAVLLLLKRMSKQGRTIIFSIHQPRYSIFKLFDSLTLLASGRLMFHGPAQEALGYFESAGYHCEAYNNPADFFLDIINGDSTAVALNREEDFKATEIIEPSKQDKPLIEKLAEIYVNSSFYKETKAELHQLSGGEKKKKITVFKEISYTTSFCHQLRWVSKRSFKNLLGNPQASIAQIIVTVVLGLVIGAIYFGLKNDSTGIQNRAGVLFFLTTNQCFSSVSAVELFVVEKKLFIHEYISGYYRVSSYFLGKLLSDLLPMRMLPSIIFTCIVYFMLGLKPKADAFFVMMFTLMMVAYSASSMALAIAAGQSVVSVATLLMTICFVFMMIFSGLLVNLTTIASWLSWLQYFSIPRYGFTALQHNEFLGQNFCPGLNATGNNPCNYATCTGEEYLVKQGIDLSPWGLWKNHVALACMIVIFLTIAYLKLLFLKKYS
Source text: (§1) The human embryonic kidney 293 (HEK293) cell line was purchased from Invitrogen/ThermoFisher (Waltham, MA, USA). Madin–Darby canine kidney II (MDCKII) wild type cells were obtained from the European Collection of Authenticated Cell Cultures (ECACC catalog no. 00062107). HEK293 cells overexpressing the human uptake OATP1B1 (NCBI Reference Sequence: NM_006446.4), OATP1B3 (NM_019844), OATP2B1 (NM_007256), OATP1A2 (NM_134431), OAT1-3 (BC033682.1; NM_006672.3; BC022387), OCT1-3 (BC126364.1; NM_003058; NM_021977), OCTN1 (NM_003059.3), NTCP (NM_003049.3), MATE1 (NM_018242.3), MATE2K (NM_001099646.2), ENT4 (NM_001040661.1), SGLT2 (AJ133127.1), ASCT1/2 (NM_003038.5; NM_005628.3), LAT1/2 (NM_003486.6; NM_012244.4), and THTR1/2 (NM_006996; NM_025243) and mock and human efflux BCRP (NM_004827.2), BSEP (NM_003742.2), MDR1 (NM_000927.4), and MRP1-5 (NM_004996; NM_000392.4; BC137347.1; NM_005845.4; NM_005688.2) transporters as well as MDCKII overexpressing human ENT1/2 (NM_001078177; NM_001532.2) and URAT1 (BC053348) transporters were created by lentiviral transduction. The cDNA encoding respective transporters were synthetized and cloned by GenScript (Piscataway, NJ, USA). The production of lentivirus supernatants, the transduction of the cells, cloning, functional characterization, and validation were performed by Charles River Laboratories Hungary Kft. (Budapest, Hungary).
(§2) Membrane vesicles were prepared from ABC transporter-overexpressing HEK293 cells by Charles River Laboratories Hungary Kft. as described previously in detail. Vesicles were frozen in liquid nitrogen and stored at −80 °C.
(§3) Vesicular transport inhibition assays were performed using a rapid filtration technique. In brief, the appropriate amount of the protein of each membrane vesicle was mixed with either the extract or isopteropodine, mitraphylline, or uncarine D at one concentration or with their half dilution series from 150 µg/mL or from 100 µM, the suitable transporter substrate, and the assay buffer on ice. Reaction mixtures were preincubated for 15 min at 37 °C with shaking at 250 rpm. Following preincubation, 4 mM Mg-ATP or AMP was added and incubated according to Table S3. Vesicular transport was terminated by adding an ice-cold washing buffer, and the reaction mix was transferred to a MSFBN6B10 filter plate (Merck) for filtration. The filter plates were then dried at 40 °C for 4 h, and radiolabeled substrates retained in the vesicles were detected by liquid scintillation counting as described above. For fluorescent substrates, accumulation was measured with a Clariostar^plus microplate reader (BMG Labtech GmbH, Ortenberg, Germany).
(§4) The transporter-mediated uptake and ATP-dependent transport were determined by subtracting the activity of the control cell/transporter abundant-membrane in the presence of AMP from the activity of the transporter-overexpressing cell/transporter-abundant membrane in the presence of ATP. The relative transporter-specific accumulation was expressed as the percent of DMSO activity. The results were presented as the mean ± SEM from 3 parallels. More than a 20% reduction in transport activity was considered as inhibition. For the IC50 determination, dose–response curves were fitted using a 4-parameter nonlinear model in GraphPad Prism version 9.0. Confidence intervals (CIs) of 95% were also determined.
(§5) Table S3 – Vesicular transport inhibition assay details.
These parameters were set during previous validations. TC: taurocholic acid, E3S: estrone 3 -sulfate, […]

[2] = molecular target: T2, MDR1 (Homo sapiens, UniProt P08183); assay: Vesicular transport inhibition assay, MDR1 membrane vesicles; type: biochemical; settings: for Igut/IC50 ratio: MDR1, Igut = dose/250 mL, 500 mg dose of UT extract, ICH M12 cut-off 10; for IC50: oxindole alkaloids, substrate NMQ, read-out: IC50 (95% CI of IC50)
T2 construct: The cDNA encoding respective transporters were synthetized and cloned by GenScript; host or cells: HEK293 (lentiviral transduction), membrane vesicles
Source text: as §1, §2, §3, §4, §5
These parameters were set during previous validations. TC: taurocholic acid, E3S: estrone 3 -sulfate,
NMQ: N-methyl-quinidine, E217βG: β-Estradiol 17-(β-D-glucuronide), DHEAS:
Dehydroepiandrosterone sulfate, CDCF: 5(6)-Carboxy-2',7-dichlorofluorescein B.
Parental Transporter Incubation Substrate Substrate µg Incubation
cell time (min) concentration membrane/ temperature

T2 sequence (P08183 whole entry): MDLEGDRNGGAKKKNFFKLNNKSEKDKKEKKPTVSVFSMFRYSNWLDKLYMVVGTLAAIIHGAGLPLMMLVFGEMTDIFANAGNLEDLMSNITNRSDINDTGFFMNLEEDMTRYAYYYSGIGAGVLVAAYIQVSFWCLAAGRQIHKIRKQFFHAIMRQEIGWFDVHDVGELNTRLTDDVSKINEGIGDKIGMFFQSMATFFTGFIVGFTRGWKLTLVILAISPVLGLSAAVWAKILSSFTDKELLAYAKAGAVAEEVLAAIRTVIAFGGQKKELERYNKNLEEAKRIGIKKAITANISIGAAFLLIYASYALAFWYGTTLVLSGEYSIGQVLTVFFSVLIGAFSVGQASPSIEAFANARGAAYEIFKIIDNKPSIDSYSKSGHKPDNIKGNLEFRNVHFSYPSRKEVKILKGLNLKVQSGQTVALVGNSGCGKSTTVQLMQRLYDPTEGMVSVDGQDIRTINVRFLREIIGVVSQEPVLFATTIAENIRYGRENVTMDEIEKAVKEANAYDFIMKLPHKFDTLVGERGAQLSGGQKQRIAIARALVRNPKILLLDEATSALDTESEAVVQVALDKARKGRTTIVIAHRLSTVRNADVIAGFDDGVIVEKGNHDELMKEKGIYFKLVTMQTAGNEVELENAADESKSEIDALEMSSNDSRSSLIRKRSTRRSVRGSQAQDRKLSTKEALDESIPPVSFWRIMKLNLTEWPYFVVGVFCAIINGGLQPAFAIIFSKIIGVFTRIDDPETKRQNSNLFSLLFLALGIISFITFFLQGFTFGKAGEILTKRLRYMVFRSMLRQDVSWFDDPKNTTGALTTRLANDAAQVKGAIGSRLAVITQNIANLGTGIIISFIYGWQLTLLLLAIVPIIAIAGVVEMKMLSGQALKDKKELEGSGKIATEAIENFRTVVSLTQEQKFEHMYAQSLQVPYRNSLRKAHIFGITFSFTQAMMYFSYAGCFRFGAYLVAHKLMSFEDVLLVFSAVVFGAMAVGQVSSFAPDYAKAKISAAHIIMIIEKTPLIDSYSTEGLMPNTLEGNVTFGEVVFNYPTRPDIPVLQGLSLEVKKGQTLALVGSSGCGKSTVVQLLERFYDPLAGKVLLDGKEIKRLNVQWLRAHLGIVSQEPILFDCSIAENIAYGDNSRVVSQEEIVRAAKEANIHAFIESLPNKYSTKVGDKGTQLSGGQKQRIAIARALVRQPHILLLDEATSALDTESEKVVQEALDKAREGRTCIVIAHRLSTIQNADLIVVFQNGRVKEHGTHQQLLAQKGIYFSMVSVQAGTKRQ

COC(=O)C1=CO[C@@H](C)[C@@H]2CN3CC[C@@]4(C(=O)Nc5ccccc54)[C@@H]3C[C@H]12 [isopteropodine]
Igut/IC50 ratio [1]: < 10
Igut/IC50 ratio ([1]; listed as Isopteropodine): 0.42
IC50 ([1]; listed as Isopteropodine): 54.6 µM
IC50 [1]: 54.6 µM
inhibitory effect on transporter-specific transport ([2]; 100 µM alkaloid): significantly inhibited
Igut/IC50 ratio [2]: < 10
Igut/IC50 ratio ([2]; listed as Isopteropodine): 0.82
IC50 [2]: 28.2 µM

COC(=O)C1=CO[C@@H](C)[C@H]2CN3CC[C@]4(C(=O)Nc5ccccc54)[C@@H]3C[C@H]12 [mitraphylline]
Igut/IC50 ratio [1]: < 10
Igut/IC50 ratio [2]: < 10
transporter-mediated substrate accumulation ([2]; in the presence of the alkaloid (100 µM, Figure 4)): below 50%
IC50 ([2]; listed as Mitraphylline): 28.3 µM
IC50 [2]: 28.3 µM
